According to the NIST ThermoML archive (doi:10.1021/je700260f):

Details: 333.15 K, Liquid, Vibrating tube method

FC(C(F)(F)F)C(F)(F)F [1,1,1,2,3,3,3-heptafluoropropane]
Details | mass density [kg/m3]
14224 kPa | 1356.7
14266 kPa | 1357
14291 kPa | 1357.2
14328 kPa | 1357.4
14371 kPa | 1357.7
14400 kPa | 1357.8
14435 kPa | 1358.2
14458 kPa | 1358.3
14483 kPa | 1358.5
14514 kPa | 1358.6
14545 kPa | 1358.8
14575 kPa | 1359.1
14609 kPa | 1359.3
14631 kPa | 1359.4
14665 kPa | 1359.7
14691 kPa | 1359.8
14717 kPa | 1360
14746 kPa | 1360.2
14768 kPa | 1360.3
14798 kPa | 1360.5
15205 kPa | 1363.1
15236 kPa | 1363.4
15290 kPa | 1363.8
15717 kPa | 1366.6
15745 kPa | 1366.7
15780 kPa | 1366.8
15812 kPa | 1367.1
15836 kPa | 1367.2
15868 kPa | 1367.4
15899 kPa | 1367.6
15926 kPa | 1367.8
16438 kPa | 1370.9
16464 kPa | 1371.3
16489 kPa | 1371.4
16519 kPa | 1371.5
16626 kPa | 1372.2
16683 kPa | 1372.5
16707 kPa | 1372.8
16730 kPa | 1372.7
16761 kPa | 1373
17906 kPa | 1379.9
17932 kPa | 1379.9
17962 kPa | 1380.3
17993 kPa | 1380.3
18015 kPa | 1380.5
18050 kPa | 1380.7
18080 kPa | 1380.9
18108 kPa | 1381
19508 kPa | 1388.9
19537 kPa | 1389
19563 kPa | 1389.2
19597 kPa | 1389.4
19624 kPa | 1389.6
19650 kPa | 1389.8
19677 kPa | 1389.8
20749 kPa | 1395.7
20777 kPa | 1395.9
20814 kPa | 1396
20842 kPa | 1396.2
20873 kPa | 1396.4
20901 kPa | 1396.5
20931 kPa | 1396.6
20957 kPa | 1396.9
20979 kPa | 1396.9
21008 kPa | 1397
21033 kPa | 1397.1
21063 kPa | 1397.3
21088 kPa | 1397.5
21120 kPa | 1397.5
21148 kPa | 1397.8
21172 kPa | 1397.9
21205 kPa | 1398
21229 kPa | 1398.2
21270 kPa | 1398.3
21296 kPa | 1398.6
21327 kPa | 1398.7
21360 kPa | 1398.9
21397 kPa | 1399.2
21645 kPa | 1400.3
21675 kPa | 1400.5
21704 kPa | 1400.7
21740 kPa | 1400.8
21764 kPa | 1401
21831 kPa | 1401.4
21897 kPa | 1401.7
21932 kPa | 1401.8
22798 kPa | 1406.2
22829 kPa | 1406.3
22856 kPa | 1406.5
22880 kPa | 1406.7
22918 kPa | 1406.7
22954 kPa | 1407
23854 kPa | 1411.4
25147 kPa | 1417.6
25181 kPa | 1417.7
25224 kPa | 1417.9
25251 kPa | 1417.9
25279 kPa | 1418.1
25312 kPa | 1418.3
25354 kPa | 1418.4
25387 kPa | 1418.6
25415 kPa | 1418.7
26099 kPa | 1421.9
26128 kPa | 1422
26167 kPa | 1422.2
26201 kPa | 1422.2
26234 kPa | 1422.6
26257 kPa | 1422.6
26527 kPa | 1423.9
26563 kPa | 1423.8
26596 kPa | 1424.2
26625 kPa | 1424.4
26654 kPa | 1424.4
26692 kPa | 1424.5
26726 kPa | 1424.8
26760 kPa | 1424.8
26801 kPa | 1425
26831 kPa | 1425.1
26860 kPa | 1425.4
26889 kPa | 1425.4
26914 kPa | 1425.6
26943 kPa | 1425.8
26972 kPa | 1425.8
26999 kPa | 1425.9
27023 kPa | 1426
27056 kPa | 1426.1
27081 kPa | 1426.2
27119 kPa | 1426.4
27151 kPa | 1426.6
27180 kPa | 1426.6
27621 kPa | 1428.6
27651 kPa | 1428.9
27681 kPa | 1428.9
27707 kPa | 1428.9
27750 kPa | 1429.2
27783 kPa | 1429.3
27818 kPa | 1429.5
27852 kPa | 1429.7
27890 kPa | 1429.9
27916 kPa | 1430
27950 kPa | 1430.1
27975 kPa | 1430.2
28484 kPa | 1432.4
28514 kPa | 1432.5
28543 kPa | 1432.6
28577 kPa | 1432.8
28602 kPa | 1432.9
28633 kPa | 1433
28668 kPa | 1433.1
28698 kPa | 1433.3
28730 kPa | 1433.3
28761 kPa | 1433.5
28792 kPa | 1433.6
28833 kPa | 1433.9
28866 kPa | 1434
28892 kPa | 1434.1
28917 kPa | 1434.2
28956 kPa | 1434.4
28982 kPa | 1434.4
29008 kPa | 1434.6
29042 kPa | 1434.7
29069 kPa | 1434.8
29104 kPa | 1434.9
29132 kPa | 1435.2
29171 kPa | 1435.3
29206 kPa | 1435.5
29233 kPa | 1435.5
29267 kPa | 1435.7
29293 kPa | 1435.7
29326 kPa | 1435.9
29364 kPa | 1436.1
29400 kPa | 1436.2
29434 kPa | 1436.4
29694 kPa | 1437.4
29758 kPa | 1437.7
30086 kPa | 1439
30149 kPa | 1439.4
30189 kPa | 1439.6
30299 kPa | 1440
30336 kPa | 1440.1
30372 kPa | 1440.3
30402 kPa | 1440.3
30439 kPa | 1440.7
30461 kPa | 1440.7
30493 kPa | 1440.8
30521 kPa | 1440.9
30557 kPa | 1441.1
30586 kPa | 1441.1
30623 kPa | 1441.3
30650 kPa | 1441.3
30690 kPa | 1441.5
30717 kPa | 1441.7
30753 kPa | 1441.8
30780 kPa | 1441.9
30816 kPa | 1442.1
30843 kPa | 1442
30884 kPa | 1442.3
30925 kPa | 1442.4
32911 kPa | 1450.4
32943 kPa | 1450.4
32981 kPa | 1450.6
33028 kPa | 1450.9
33066 kPa | 1451
33093 kPa | 1451.1
33132 kPa | 1451.1
